Assay results from patent US10750743B2, “Pyridazinone herbicides” (E.I. DU PONT DE NEMOURS AND COMPANY, priority 2015, dated 2020).

How the values were obtained:
Assay type in all cases: in vivo
[1] = tested on: wheat (Triticum aestivum); experiment: Test A postemergence application, visual injury rating; settings: 0 to 100 scale, 0 no effect, 100 complete control
Text: (§1) Seeds of plant species selected from barnyardgrass (Echinochloa crus-galli), kochia (Kochia scoparia), ragweed (common ragweed, Ambrosia elatior), ryegrass, It. (Italian ryegrass, Lolium multiflorum), foxtail, giant (giant foxtail, Setaria faberii), and pigweed (Amaranthus retroflexus), were planted into a blend of loam soil and sand and treated preemergence with a directed soil spray using test chemicals formulated in a non-phytotoxic solvent mixture which included a surfactant.
(§2) At the same time, plants selected from these weed species and also wheat (Triticum aestivum), corn (Zea mays), blackgrass (Alopecurus myosuroides), and galium (catchweed bedstraw, Galium aparine), were planted in pots containing the same blend of loam soil and sand and treated with postemergence applications of test chemicals formulated in the same manner Plants ranged in height from 2 to 10 cm and were in the one- to two-leaf stage for the postemergence treatment. Treated plants and untreated controls were maintained in a greenhouse for approximately 10 d, after which time all treated plants were compared to untreated controls and visually evaluated for injury. Plant response ratings, summarized in Table A, are based on a 0 to 100 scale where 0 is no effect and 100 is complete control. A dash (-) response means no test result.

corn (Zea mays) = experiment: as above; settings: 0 to 100 scale, 0 no effect, 100 complete control
Text: as §1, §2

kochia (Kochia scoparia) [2] = experiment: as above; settings: 0 to 100 scale, 0 no effect, 100 complete control
Text: as §1, §2

[3] = tested on: galium (catchweed bedstraw, Galium aparine); experiment: as above; settings: 0 to 100 scale, 0 no effect, 100 complete control
Text: as §1, §2

[4] = tested on: foxtail, giant (giant foxtail, Setaria faberii); experiment: as above; settings: 0 to 100 scale, 0 no effect, 100 complete control
Text: as §1, §2

[5] = tested on: pigweed (Amaranthus retroflexus); experiment: as above; settings: 0 to 100 scale, 0 no effect, 100 complete control
Text: as §1, §2

[6] = tested on: ryegrass, It. (Italian ryegrass, Lolium multiflorum); experiment: as above; settings: 0 to 100 scale, 0 no effect, 100 complete control
Text: as §1, §2

[7] = tested on: barnyardgrass (Echinochloa crus-galli); experiment: as above; settings: 0 to 100 scale, 0 no effect, 100 complete control
Text: as §1, §2

[8] = tested on: ragweed (common ragweed, Ambrosia elatior); experiment: as above; settings: 0 to 100 scale, 0 no effect, 100 complete control
Text: as §1, §2

[9] = tested on: blackgrass (Alopecurus myosuroides); experiment: as above; settings: 0 to 100 scale, 0 no effect, 100 complete control
Text: as §1, §2

[10] = tested on: ducksalad (Heteranthera limosa); experiment: Test B flooded paddy test, visual rating; settings: Flood, 250 g ai/ha, applied to paddy water, rated after 13 to 15 d
Protocol: (§3) Plant species in the flooded paddy test selected from rice (Oryza sativa), sedge, umbrella (small-flower umbrella sedge, Cyperus difformis), ducksalad (Heteranthera limosa), and barnyardgrass (Echinochloa crus-galli) were grown to the 2-leaf stage for testing. At time of treatment, test pots were flooded to 3 cm above the soil surface, treated by application of test compounds directly to the paddy water, and then maintained at that water depth for the duration of the test. Treated plants and controls were maintained in a greenhouse for 13 to 15 d, after which time all species were compared to controls and visually evaluated. Plant response ratings, summarized in Table B, are based on a scale of 0 to 100 where 0 is no effect and 100 is complete control. A dash (-) response means no test result.

[11] = tested on: barnyardgrass (Echinochloa crus-galli); experiment: Test B flooded paddy test, visual rating; settings: Flood, 250 g ai/ha, applied to paddy water, rated after 13 to 15 d
Protocol: as §3

rice (Oryza sativa) = experiment: Test B flooded paddy test, visual rating; settings: Flood, 250 g ai/ha, applied to paddy water, rated after 13 to 15 d
Protocol: as §3

[12] = tested on: sedge, umbrella (small-flower umbrella sedge, Cyperus difformis); experiment: Test B flooded paddy test, visual rating; settings: Flood, 250 g ai/ha, applied to paddy water, rated after 13 to 15 d
Protocol: as §3

kochia (Kochia scoparia) [13] = experiment: Test A preemergence, directed soil spray, visual injury rating; settings: 0 is no effect, 100 is complete control
Text: as §1, §2

[14] = tested on: foxtail, giant (giant foxtail, Setaria faberii); experiment: as above; settings: 0 is no effect, 100 is complete control
Text: as §1, §2

[15] = tested on: pigweed (Amaranthus retroflexus); experiment: as above; settings: 0 is no effect, 100 is complete control
Text: as §1, §2

[16] = tested on: ryegrass, It. (Italian ryegrass, Lolium multiflorum); experiment: as above; settings: 0 is no effect, 100 is complete control
Text: as §1, §2

[17] = tested on: barnyardgrass (Echinochloa crus-galli); experiment: as above; settings: 0 is no effect, 100 is complete control
Text: as §1, §2

[18] = tested on: ragweed (common ragweed, Ambrosia elatior); experiment: as above; settings: 0 is no effect, 100 is complete control
Text: as §1, §2

Row | Compound | Wheat plant response rating ([1]; 125 g ai/ha) | Wheat plant response rating ([1]; 500 g ai/ha) | Corn plant response rating (corn (Zea mays); 125 g ai/ha) | Corn plant response rating (corn (Zea mays); 500 g ai/ha) | Kochia plant response rating (kochia (Kochia scoparia) [2]; 125 g ai/ha) | Kochia plant response rating (kochia (Kochia scoparia) [2]; 500 g ai/ha) | Galium plant response rating ([3]; 125 g ai/ha) | Galium plant response rating ([3]; 500 g ai/ha) | Foxtail, Giant plant response rating ([4]; 125 g ai/ha) | Foxtail, Giant plant response rating ([4]; 500 g ai/ha) | Pigweed plant response rating ([5]; 125 g ai/ha) | Pigweed plant response rating ([5]; 500 g ai/ha) | Ryegrass, It. plant response rating ([6]; 125 g ai/ha) | Ryegrass, It. plant response rating ([6]; 500 g ai/ha) | Barnyardgrass plant response rating ([7]; 125 g ai/ha) | Barnyardgrass plant response rating ([7]; 500 g ai/ha) | Ragweed plant response rating ([8]; 125 g ai/ha) | Ragweed plant response rating ([8]; 500 g ai/ha) | Blackgrass plant response rating ([9]; 125 g ai/ha) | Blackgrass plant response rating ([9]; 500 g ai/ha) | other results
1 | CCOC(=O)Oc1c(C)nn(C)c(=O)c1-c1c(C)sc2ncccc12 [Compound 24] | 0 | 0 | 0 | 10 | 0 | 0 | 0 | 0 | 0 | 0 | 0 | 10 | 0 | 20 | 0 | 0 | 0 | 0 | 0 | 0 | Ducksalad plant response rating (0 to 100 scale, 0 is no effect, 100 is complete control) [10]: 0; Barnyardgrass plant response rating (0 to 100 scale, 0 is no effect, 100 is complete control) [11]: 0; Rice plant response rating (0 to 100 scale, 0 is no effect, 100 is complete control) (rice (Oryza sativa)): 0; Sedge, Umbrella plant response rating (0 to 100 scale, 0 is no effect, 100 is complete control) [12]: 0; Plant response rating (0 to 100 scale), Kochia (kochia (Kochia scoparia) [13]; 125 g ai/ha): 0; Plant response rating (0 to 100 scale), Kochia (kochia (Kochia scoparia) [13]; 500 g ai/ha): 0; Plant response rating (0 to 100 scale), Foxtail, Giant ([14]; 125 g ai/ha): 0; Plant response rating (0 to 100 scale), Foxtail, Giant ([14]; 500 g ai/ha): 0; Plant response rating (0 to 100 scale), Pigweed ([15]; 125 g ai/ha): 0; Plant response rating (0 to 100 scale), Pigweed ([15]; 500 g ai/ha): 0; Plant response rating (0 to 100 scale), Ryegrass, It. ([16]; 125 g ai/ha): 10; Plant response rating (0 to 100 scale), Ryegrass, It. ([16]; 500 g ai/ha): 20; Plant response rating (0 to 100 scale), Barnyardgrass ([17]; 125 g ai/ha): 0; Plant response rating (0 to 100 scale), Barnyardgrass ([17]; 500 g ai/ha): 0; Plant response rating (0 to 100 scale), Ragweed ([18]; 125 g ai/ha): 0; Plant response rating (0 to 100 scale), Ragweed ([18]; 500 g ai/ha): 0
2 | Cc1nn(C)c(=O)c(-c2c(C)sc3ncccc23)c1OC(=O)C1CC1 [Compound 23] | 0 | 0 | 0 | 20 | 0 | 0 | 0 | 0 | 0 | 0 | 0 | 40 | 0 | 10 | 0 | 0 | 0 | 0 | 0 | 0 | Ducksalad plant response rating (0 to 100 scale, 0 is no effect, 100 is complete control) [10]: 0; Barnyardgrass plant response rating (0 to 100 scale, 0 is no effect, 100 is complete control) [11]: 0; Rice plant response rating (0 to 100 scale, 0 is no effect, 100 is complete control) (rice (Oryza sativa)): 0; Sedge, Umbrella plant response rating (0 to 100 scale, 0 is no effect, 100 is complete control) [12]: 0; Plant response rating (0 to 100 scale), Kochia (kochia (Kochia scoparia) [13]; 125 g ai/ha): 0; Plant response rating (0 to 100 scale), Kochia (kochia (Kochia scoparia) [13]; 500 g ai/ha): 0; Plant response rating (0 to 100 scale), Foxtail, Giant ([14]; 125 g ai/ha): 0; Plant response rating (0 to 100 scale), Foxtail, Giant ([14]; 500 g ai/ha): 0; Plant response rating (0 to 100 scale), Pigweed ([15]; 125 g ai/ha): 0; Plant response rating (0 to 100 scale), Pigweed ([15]; 500 g ai/ha): 0; Plant response rating (0 to 100 scale), Ryegrass, It. ([16]; 125 g ai/ha): 0; Plant response rating (0 to 100 scale), Ryegrass, It. ([16]; 500 g ai/ha): 0; Plant response rating (0 to 100 scale), Barnyardgrass ([17]; 125 g ai/ha): 0; Plant response rating (0 to 100 scale), Barnyardgrass ([17]; 500 g ai/ha): 0; Plant response rating (0 to 100 scale), Ragweed ([18]; 125 g ai/ha): 0; Plant response rating (0 to 100 scale), Ragweed ([18]; 500 g ai/ha): 0
